Reference: US20190375764A1, “SALTS OF A HETEROCYCLIC COMPOUND AND CRYSTALLINE FORMS, PROCESSES FOR PREPARING, THERAPEUTIC USES, AND PHARMACEUTICAL COMPOSITIONS THEREOF” (Sunovion Pharmaceuticals Inc., priority 2018, published 2019)
Entries after “also recorded” stand apart in the source; their conditions may differ. Blank lines part the entries; values can stand above or below the molecule they belong to.

How the values were obtained:
Type in all cases: physicochemical
[1] = Temperature controlled XRPD (crystal form on heating); settings: heating up to melting
Procedure: Temperature controlled XRPD was measured by the X'pert-MPD with an Anton Paar TCU 100 Temperature Control Unit. Sample was measured from 30° C. to 250° C. or 270° C. with 10° C. increments. Measurement conditions were as follows: range: 4-30°, step: 0.017°, time per step: 100 s.
FT-Raman, XRPD, DSC, TGA, and DVS instruments and techniques are similar to those in Example 3. Temperature controlled XRPD was measured by X'pert-Pro MPD (Spectris) with TCU 100 Temperature Control Unit (Anton Paar). The temperature of the sampling stage was increased step by step as programmed and XRPD patterns of sample were measured at each step. The measurement condition is shown below: • Range angle: From 4 to 30° • Step size: 0.017° • Time per step: 100 s

[2] = Dynamic vapor sorption (DVS) moisture sorption isotherm; settings: for hygroscopicity: result of DVS, in words
Procedure: DVS moisture sorption isotherms were generated using a Hiden Analytical IGA-sorp moisture sorption analyzer. Samples were run as received without pre-analysis drying. Each sample was equilibrated between about 30 and 120 minutes at each relative humidity (RH) step. Temperature was fixed at about 25° C. and the relative humidity steps (0 to 95% RH) were in 5-10% increments. Sample sizes ranged from 3 to 30 mg. After DVS measurement, XRPD was measured in order to check the solid form. Dynamic Vapor sorption (DVS) moisture sorption isotherms were generated using IGA-sorp moisture sorption analyzer (Hiden Analytical). Sample measurements were run without drying before analyses. XRPD was measured in order to check any changes of the solid form after the moisture sorption/desorption. The measurement condition is shown below: • Time at each RH steps: From 30 to 120 minutes • Relative humidity steps: 5 or 10% steps • Temperature: 25° C.

[3] = Crystal form stability on humidity, storage and drying (XRPD / FT-Raman); settings: for crystal form before and after DVS measurement (XRPD): moisture sorption/desorption
Procedure: DVS moisture sorption isotherms were generated using a Hiden Analytical IGA-sorp moisture sorption analyzer. Samples were run as received without pre-analysis drying. Each sample was equilibrated between about 30 and 120 minutes at each relative humidity (RH) step. Temperature was fixed at about 25° C. and the relative humidity steps (0 to 95% RH) were in 5-10% increments. Sample sizes ranged from 3 to 30 mg. After DVS measurement, XRPD was measured in order to check the solid form. FT-Raman analyses were performed by using MultiRAM (Bruker Optics). Each suspension or dry powder sample was measured from out of glass vial. The measurement condition is shown below: • Excitation wavelength: 1064 nm • Laser power: 500 mW • Wavenumber: 4 cm^−1 • Sample scan: 128 times X-ray Powder Diffraction (XRPD) spectra were obtained by X'pert Pro MPD (Spectris). X-rays was generated with Cu Kα radiation. The powder samples were put on the reflection free sample plate. The XRPD patterns were analyzed by HighScorePlus. The measurement condition is shown below: • Range angle: From 4 to 30°, to 40° and to 65° (2θ) • Step size: 0.017° • Time per step: 100 s Dynamic Vapor sorption (DVS) moisture sorption isotherms were generated using IGA-sorp moisture sorption analyzer (Hiden Analytical). Sample measurements were run without drying before analyses. XRPD was measured in order to check any changes of the solid form after the moisture sorption/desorption. The measurement condition is shown below: • Time at each RH steps: From 30 to 120 minutes • Relative humidity steps: 5 or 10% steps • Temperature: 25° C.

[4] = humidity increased from 0% RH to 95% RH

SMILES: CNC[C@H]1OCCn2nc3ccccc3c21.O=S(=O)(O)c1ccccc1 [Form BA, (R)-1-(3,4-dihydro-1H-[1,4]oxazino[4,3-b]indazol-1-yl)-N-methylmethanamine benzenesulfonate]
transformation of crystal form, temperature controlled XRPD [1]: not transformed to any other polymorph | weight gain (DVS) ([2]; at 90% RH, another batch of Form BA): about 1% | weight gain (DVS) ([2]; at 90% RH, one batch of Form BA): about 2% | weight gain (DVS) ([2]; at 95% RH): about 2% | weight gain (DVS) ([2]; at 95% RH, another batch of Form BA): about 2% | weight gain (DVS) ([2]; at 95% RH, one batch of Form BA): about 8% | hygroscopicity ([2]; benzenesulfonate): less hygroscopicity; also recorded: good hygroscopicity behavior | hygroscopicity ([2]; listed as besylate, benzenesulfonate): less hygroscopicity

SMILES: CNC[C@H]1OCCn2nc3ccccc3c21.Cl [Form HB, (R)-1-(3,4-dihydro-1H-[1,4]oxazino[4,3-b]indazol-1-yl)-N-methylmethanamine hydrochloride]
crystal form stability on isolation ([3]; observed only in a suspension state, filtrated and dried, hydrochloride): transformed to Form HC or Form HA; also recorded: Not stable

SMILES: CNC[C@H]1OCCn2nc3ccccc3c21.Cl [Form HC, (R)-1-(3,4-dihydro-1H-[1,4]oxazino[4,3-b]indazol-1-yl)-N-methylmethanamine hydrochloride]
weight gain (DVS) ([2]; between 60% RH and 70% RH (Form HC transformed to Form HD)): 6.5% | weight gain (DVS) [2, 4]: 9.3% | hygroscopicity ([2]; hydrochloride): hygroscopic | crystal form after storage at high-humid condition (Raman) ([3]; 75% RH for 1 day, saturated sodium chloride water): transformed to Form HD | crystal form transformation ([3]; humidity level of more than 70% RH): Transformed to Form D | crystal form before and after DVS measurement (XRPD) ([3]; hydrochloride): basically stable

SMILES: CNC[C@H]1OCCn2nc3ccccc3c21.Cl [Form HD, (R)-1-(3,4-dihydro-1H-[1,4]oxazino[4,3-b]indazol-1-yl)-N-methylmethanamine hydrochloride]
crystal form transformation ([3]; at room temperature): Transformed to Form C

SMILES: CNC[C@H]1OCCn2nc3ccccc3c21.O=C(O)/C=C/C(=O)O [fumarate, (R)-1-(3,4-dihydro-1H-[1,4]oxazino[4,3-b]indazol-1-yl)-N-methylmethanamine fumarate]
hygroscopicity [2]: no hygroscopicity

Continued, in another order:

transformation of crystal form, temperature controlled XRPD [1]: not transformed to any other polymorph
SMILES: CNC[C@H]1OCCn2nc3ccccc3c21.O=C(O)/C=C/C(=O)O [Form FA, (R)-1-(3,4-dihydro-1H-[1,4]oxazino[4,3-b]indazol-1-yl)-N-methylmethanamine fumarate]

weight gain (DVS) ([2]; at over 75% RH): about 5% | crystal form after storage under humidity ([3]; 75% RH overnight (NaCl water suspension)): Form FA was observed | crystal form under dry condition or heated ([3]; dry condition or heated, quickly transformed back to hydrous form in the air): anhydrous form can be obtained
SMILES: CNC[C@H]1OCCn2nc3ccccc3c21.O=C(O)/C=C/C(=O)O [Form FB, (R)-1-(3,4-dihydro-1H-[1,4]oxazino[4,3-b]indazol-1-yl)-N-methylmethanamine fumarate]

weight gain (DVS) ([2]; at 95% RH): over 100% | hygroscopicity ([2]; hydrochloride): Highly hygroscopic
SMILES: CNC[C@H]1OCCn2nc3ccccc3c21.Cl [Form HA, (R)-1-(3,4-dihydro-1H-[1,4]oxazino[4,3-b]indazol-1-yl)-N-methylmethanamine hydrochloride]
crystal form before and after DVS measurement (XRPD) ([3]; hydrochloride): transformed to Form HC mixed with an unidentified polymorph

weight gain (DVS) ([2]; at 95% RH): about 1% | weight gain (DVS) [2, 4]: ~1% | hygroscopicity ([2]; listed as Tosylate, tosylate): less hygroscopicity | hygroscopicity ([2]; listed as tosylate, tosylate): less hygroscopicity | crystal form before and after DVS measurement (XRPD) [3]: no changes of the crystal form
SMILES: CNC[C@H]1OCCn2nc3ccccc3c21.Cc1ccc(S(=O)(=O)O)cc1 [Form TA, (R)-1-(3,4-dihydro-1H-[1,4]oxazino[4,3-b]indazol-1-yl)-N-methylmethanamine tosylate]
transformation of crystal form, temperature controlled XRPD ([1]; tosylate): not transformed to any other polymorph; also recorded: stable in terms of the crystal form and not transformed to another form until the melting point | hygroscopicity ([2]; tosylate): less hygroscopicity; also recorded: good hygroscopicity behavior; also recorded: non-hygroscopicity
